Data: patent US8722578B2, “Spiroheterocyclic pyrrolidinedione herbicidal compositions” (Syngenta Participations AG, priority 2008, dated 2014)

Columns and labels:
Avena fatua (AVEFA) [1] = assay: Example B post-emergence herbicidal activity, glasshouse pot test; assay type: in vivo; settings: 312 h, evaluated after 13 days, read-out: AVEFA post-emergence activity (100=total damage to plant; 0=no damage to plant); for pest or weed control at 1000 g/ha: rate 1000 g/ha
Method: (§1) Seeds of a variety of test species are sown in standard soil in pots. After cultivation for one day (pre-emergence) or after 8 days cultivation (post-emergence) under controlled conditions in a glasshouse (at 24/16° C., day/night; 14 hours light; 65% humidity), the plants are sprayed with an aqueous spray solution derived from the formulation of the technical active ingredient in acetone/water (50:50) solution containing 0.5% Tween 20 (polyoxyethelyene sorbitan monolaurate, CAS RN 9005-64-5). The test plants are then grown in a glasshouse under controlled conditions in a glasshouse (at 24/16° C., day/night; 14 hours light; 65% humidity) and watered twice daily. After 13 days for pre and post-emergence, the test is evaluated (100=total damage to plant; 0=no damage to plant). Test Plants: Setaria faberi (SETFA), Alopecurus myosuroides (ALOMY), Echinochloa crus-galli (ECHCG), Avena fatua (AVEFA)

Setaria faberi (SETFA) [2] = assay: as above; assay type: in vivo; settings: 312 h, evaluated after 13 days, read-out: SETFA post-emergence activity (100=total damage to plant; 0=no damage to plant); for pest or weed control at 1000 g/ha: rate 1000 g/ha
Method: as §1

[3] = test system: Echinochloa crus-galli (ECHCG); assay: as above; assay type: in vivo; settings: 312 h, evaluated after 13 days, read-out: ECHCG post-emergence activity (100=total damage to plant; 0=no damage to plant); for pest or weed control at 1000 g/ha: rate 1000 g/ha
Method: as §1

[4] = test system: Alopecurus myosuroides (ALOMY); assay: as above; assay type: in vivo; settings: 312 h, evaluated after 13 days, read-out: ALOMY post-emergence activity (100=total damage to plant; 0=no damage to plant); for pest or weed control at 1000 g/ha: rate 1000 g/ha
Method: as §1

Avena fatua (AVEFA) [5] = assay: Example A pre-emergence herbicidal activity, glasshouse pot test; assay type: in vivo; settings: 480 h, rate 250 g/ha, evaluated 20 days after spraying, read-out: AVEFA pre-emergence activity (100=total damage to plant; 0=no damage to plant)
Method: (§2) Monocotyledonous and dicotyledonous test plants are sown in standard soil in pots. After cultivation for one day (pre-emergence) or after 10 days cultivation (post-emergence) under controlled conditions in a glasshouse, the plants are sprayed with an aqueous spray solution derived from the formulation of the technical active ingredient in 0.6 ml acetone and 45 ml formulation solution containing 10.6% Emulsogen EL (Registry number 61791-12-6), 42.2% N-methylpyrrolidone, 42.2% dipropylene glycol monomethyl ether (Registry number 34590-94-8) and 0.2% X-77 (Registry number 11097-66-8). The test plants are then grown in a greenhouse under optimum conditions until, 15 days later for post-emergence and 20 days for pre-emergence, the test is evaluated (100=total damage to plant; 0=no damage to plant). Test Plants: Alopecurus myosuroides (ALOMY), Avena fatua (AVEFA), Lolium perenne (LOLPE), Setaria faberi (SETFA), Digitaria sanguinalis (DIGSA), Echinochloa crus-galli (ECHCG) Pre-Emergence Activity

Setaria faberi (SETFA) [6] = assay: as above; assay type: in vivo; settings: 480 h, rate 250 g/ha, evaluated 20 days after spraying, read-out: SETFA pre-emergence activity (100=total damage to plant; 0=no damage to plant)
Method: as §2

Lolium perenne (LOLPE) [7] = assay: as above; assay type: in vivo; settings: 480 h, rate 250 g/ha, evaluated 20 days after spraying, read-out: LOLPE pre-emergence activity (100=total damage to plant; 0=no damage to plant)
Method: as §2

[8] = test system: Digitaria sanguinalis (DIGSA); assay: as above; assay type: in vivo; settings: 480 h, rate 250 g/ha, evaluated 20 days after spraying, read-out: DIGSA pre-emergence activity (100=total damage to plant; 0=no damage to plant)
Method: as §2

[9] = test system: Echinochloa crus-galli (ECHCG); assay: as above; assay type: in vivo; settings: 480 h, rate 250 g/ha, evaluated 20 days after spraying, read-out: ECHOG pre-emergence activity (100=total damage to plant; 0=no damage to plant)
Method: as §2

[10] = test system: Alopecurus myosuroides (ALOMY); assay: as above; assay type: in vivo; settings: 480 h, rate 250 g/ha, evaluated 20 days after spraying, read-out: ALOMY pre-emergence activity (100=total damage to plant; 0=no damage to plant)
Method: as §2

Avena fatua (AVEFA) [11] = assay: Example B pre-emergence herbicidal activity, glasshouse pot test; assay type: in vivo; settings: 312 h, first table (headed Post-Emergence, taken as pre-emergence), evaluated after 13 days, read-out: AVEFA activity (100=total damage to plant; 0=no damage to plant); for pest or weed control at 1000 g/ha: rate 1000 g/ha
Method: as §1

Setaria faberi (SETFA) [12] = assay: as above; assay type: in vivo; settings: 312 h, first table (headed Post-Emergence, taken as pre-emergence), evaluated after 13 days, read-out: SETFA activity (100=total damage to plant; 0=no damage to plant); for pest or weed control at 1000 g/ha: rate 1000 g/ha
Method: as §1

[13] = test system: Echinochloa crus-galli (ECHCG); assay: as above; assay type: in vivo; settings: 312 h, first table (headed Post-Emergence, taken as pre-emergence), evaluated after 13 days, read-out: ECHCG activity (100=total damage to plant; 0=no damage to plant); for pest or weed control at 1000 g/ha: rate 1000 g/ha
Method: as §1

[14] = test system: Alopecurus myosuroides (ALOMY); assay: as above; assay type: in vivo; settings: 312 h, first table (headed Post-Emergence, taken as pre-emergence), evaluated after 13 days, read-out: ALOMY activity (100=total damage to plant; 0=no damage to plant); for pest or weed control at 1000 g/ha: rate 1000 g/ha
Method: as §1

Avena fatua (AVEFA) [15] = assay: Example A post-emergence herbicidal activity, glasshouse pot test; assay type: in vivo; settings: 360 h, rate 125 g/ha, evaluated 15 days after spraying, read-out: AVEFA post-emergence activity (100=total damage to plant; 0=no damage to plant)
Method: as §2, with “Post-Emergence” for “Pre-Emergence”

Setaria faberi (SETFA) [16] = assay: as above; assay type: in vivo; settings: 360 h, rate 125 g/ha, evaluated 15 days after spraying, read-out: SETFA post-emergence activity (100=total damage to plant; 0=no damage to plant)
Method: as §2, with “Post-Emergence” for “Pre-Emergence”

Lolium perenne (LOLPE) [17] = assay: as above; assay type: in vivo; settings: 360 h, rate 125 g/ha, evaluated 15 days after spraying, read-out: LOLPE post-emergence activity (100=total damage to plant; 0=no damage to plant)
Method: as §2, with “Post-Emergence” for “Pre-Emergence”

[18] = test system: Digitaria sanguinalis (DIGSA); assay: as above; assay type: in vivo; settings: 360 h, rate 125 g/ha, evaluated 15 days after spraying, read-out: DIGSA post-emergence activity (100=total damage to plant; 0=no damage to plant)
Method: as §2, with “Post-Emergence” for “Pre-Emergence”

[19] = test system: Echinochloa crus-galli (ECHCG); assay: as above; assay type: in vivo; settings: 360 h, rate 125 g/ha, evaluated 15 days after spraying, read-out: ECHOG post-emergence activity (100=total damage to plant; 0=no damage to plant)
Method: as §2, with “Post-Emergence” for “Pre-Emergence”

[20] = test system: Alopecurus myosuroides (ALOMY); assay: as above; assay type: in vivo; settings: 360 h, rate 125 g/ha, evaluated 15 days after spraying, read-out: ALOMY post-emergence activity (100=total damage to plant; 0=no damage to plant)
Method: as §2, with “Post-Emergence” for “Pre-Emergence”

Row | melting point | SMILES | pest or weed control at 250 g/ha (Avena fatua (AVEFA) [5]) | pest or weed control at 250 g/ha (Setaria faberi (SETFA) [6]) | pest or weed control at 250 g/ha (Lolium perenne (LOLPE) [7]) | pest or weed control at 250 g/ha [8] | pest or weed control at 250 g/ha [9] | pest or weed control at 250 g/ha [10] | pest or weed control at 125 g/ha (Avena fatua (AVEFA) [15]) | pest or weed control at 125 g/ha (Setaria faberi (SETFA) [16]) | pest or weed control at 125 g/ha (Lolium perenne (LOLPE) [17]) | pest or weed control at 125 g/ha [18] | pest or weed control at 125 g/ha [19] | pest or weed control at 125 g/ha [20] | pest or weed control at 1000 g/ha (Avena fatua (AVEFA) [1]) | pest or weed control at 1000 g/ha (Setaria faberi (SETFA) [2]) | pest or weed control at 1000 g/ha [3] | pest or weed control at 1000 g/ha [4] | pest or weed control at 1000 g/ha (Avena fatua (AVEFA) [11]) | pest or weed control at 1000 g/ha (Setaria faberi (SETFA) [12]) | pest or weed control at 1000 g/ha [13] | other results
1 | 223 to 225 °C | CON1CCC2(CC1)NC(=O)C(c1ccc(Br)cc1Cl)=C2OC(=O)C(C)(C)C [Compound P67] | 40% | 50% | 10% | 20% | 60% | 0% | 60% | 70% | 40% | 80% | 70% | 40% |  |  |  |  |  |  |  | pest or weed control at 250 g/ha (Avena fatua (AVEFA) [1]; rate 250 g/ha): 60%; pest or weed control at 250 g/ha (Setaria faberi (SETFA) [2]; rate 250 g/ha): 90%; pest or weed control at 250 g/ha ([3]; rate 250 g/ha): 100%; pest or weed control at 250 g/ha ([4]; rate 250 g/ha): 100%; pest or weed control at 250 g/ha (Avena fatua (AVEFA) [11]; rate 250 g/ha): 60%; pest or weed control at 250 g/ha (Setaria faberi (SETFA) [12]; rate 250 g/ha): 100%; pest or weed control at 250 g/ha ([13]; rate 250 g/ha): 70%; pest or weed control at 250 g/ha ([14]; rate 250 g/ha): 80%
2 | 187 to 189 °C | CCOC(=O)OC1=C(c2ccc(Cl)cc2Cl)C(=O)NC12CCN(OC)CC2 [Compound P16] | 30% | 10% | 50% | 0% | 20% | 30% | 30% | 50% | 20% | 50% | 50% | 70% | 80% | 100% | 100% | 100% | 50% | 90% | 40% | pest or weed control at 1000 g/ha [14]: 70%
3 |  | CCOC(=O)OC1=C(c2c(C)cc(C)cc2C)C(=O)NC12CCN(OC)CC2 [Compound P18] | 70% | 20% | 70% | 20% | 30% | 60% | 60% | 60% | 70% | 80% | 80% | 70% | 90% | 100% | 100% | 100% | 90% | 100% | 100% | pest or weed control at 1000 g/ha [14]: 100%
4 |  | CON1CCC2(CC1)NC(=O)C(c1cc(-c3ccc(Cl)cc3)ccc1C)C2=O (stereo not drawn) [Compound T9] | 60% | 0% | 30% | 0% | 10% | 0% | 80% | 90% | 50% | 100% | 100% | 90% | 90% | 100% | 100% | 80% |  |  |  | 
5 | 257 to 260 °C | CON1CCC2(CC1)NC(=O)C(c1c(Cl)cccc1Cl)C2=O (stereo not drawn) [Compound T3] |  |  |  |  |  |  |  |  |  |  |  |  | 0% | 70% | 0% | 60% | 0% | 80% | 0% | pest or weed control at 1000 g/ha [14]: 40%
